Key:
Type in all cases: cell-based, monkey
COS7 cells [1] = experiment: Cell viability after UV irradiation by trypan blue exclusion
COS7 cells [2] = experiment: Cell viability by trypan blue exclusion; conditions: LM-2 medium supplement; percent ± SD of viable cells (n = 6)
Text: Unnatural amino acids frequently are toxic to cells. To find out if this is the case for photo-amino acids of the invention, we monitored in COS7 cells protein biosynthesis by incorporation of [^3H]Phe and viability by trypan blue exclusion of cells grown in the presence or absence of the photo-amino acids photo-Leu, photo-Met and photo-Ile. Due to the lack of two essential amino acids in the growth medium, protein biosynthesis is reduced to about 65% of that in a full growth medium. […] Although cells grew slightly slower than in full growth medium, viability (Table 2) and cell morphology (not shown) were unaffected.

[3] = system: E. coli beta-galactosidase; experiment: Activity of beta-galactosidase expressed in cells grown with photo-amino acids; conditions: COS 7 cells, 20 h in LM-2 with photo-amino acid; percent ± SD (n = 6) of value in DMEM + FCS
Text: We furthermore tested, whether proteins produced by cells grown with photo-amino acids are functional or not. For that, we transfected cells with GFP-fusion constructs of the small GTPase Rab5 and of mutated Rab5 that is constitutively activated (GFP-Rab5QL) or dominant negative (GFP-Rab5SN)^19 and monitored the GFP fluorescence by confocal microscopy. Four hours after transfection, when cells were switched to media containing photo-amino acids, no GFP signal was detectable (see FIG. 7). […] Both, staining intensity and localization were unaffected by the presence of either of the photo-amino acids. Taking into account a frequency of substitution of photo-Met for Met of 35% (see below) and the amounts of Met in Rab5 and GFP, more than 80% of the fusion protein will have photo-Met in both the Rab5- and the GFP-part of the fusion, more than 99% in at least one of the two parts. […] To corroborate this with a quantitative assay, we measured the activity of beta-galactosidase that was expressed in the absence or presence of photo-amino acids (see Table 4). Activity in LM-2 labeling medium was 79% of that in full DMEM. The addition of either of the three photo-amino acids or of a mixture of photo-Met and photo-Leu had no significant additional effect. E. coli beta-galactosidase contains 23 methionines of which on average 8 would be replaced by photo-Met; less than 0.01% of the protein are expected to have no substitution by photo-Met. We conclude that photo-amino acids are non-toxic to cultivated mammalian cells and can, at least partially, functionally replace branched chain amino acids and methionine.

Compound `CC1(CCC(N)C(=O)O)N=N1` [photo-Met, L-2-amino-5,5′-azi-hexanoic acid] has a Cell viability (COS7 cells [1]; 10 min UV) of 99.4 ± 0.3%, a Cell viability (COS7 cells [1]; 10 min UV + 1 h chase) of 91.9 ± 1.4% and a Cell viability (COS7 cells [1]; 30 min UV) of 98.7 ± 0.4%. For the same compound, the Cell viability (COS7 cells [1]; 30 min UV + 1 h chase) was 17.4 ± 5.3%, the Cell viability (COS7 cells [2]) was 99.8 ± 0.1% and the beta-galactosidase activity [3] was 73 ± 5%.
